{"source": "paper PMC11357992", "about": "“Non-invasive mapping of systemic neutrophil dynamics upon cardiovascular injury” (Nature Cardiovascular Research, 2023)", "tested_on": "murine blood leukocytes", "test": "Ex vivo uptake of mNPPFCs/ConPFCs by murine immune cells, flow cytometry", "format": "cell-based, mouse", "set-up": "Basal mNPPFC Uptake, flow cytometry / Stimulated mNPPFC Uptake, flow cytometry: unit not given here", "settings": "for Stimulated mNPPFC Uptake, flow cytometry: LPS-stimulated conditions; for Stimulated mNPPFC Uptake, flow cytometry / Basal mNPPFC Uptake, flow cytometry: individual experiments; for Basal mNPPFC Uptake, flow cytometry: basal conditions", "procedure": "Erythrocytes were lysed by adding a fourfold volume of NH4Cl buffer (pH 7.4). After 10 min of incubation, samples were centrifuged at 350g for 10 min at 20 °C. For isolation of neutrophils from the bone marrow, mice were killed by cervical dislocation, and bones were dissected. Afterward, cells were isolated from the bone marrow using established protocols.\nFlow cytometry was performed with a FACSCanto II (BD Biosciences) or LSRFortessa (BD Biosciences). Cells were gated with appropriate FSC–SSC settings and thresholds for excluding debris. To omit dead cells, samples were stained with 1 µg ml^−1 DAPI (Merck). For analysis, cells were gated with FACSDiva 6 or FlowJo 7.1, and MFI and/or the number of positive cells was determined, depending on the experiment.\nHuman immune cells were discriminated by staining for CD45 (BioLegend, clone HI30), CD11b (BD Biosciences, clone ICRF44), CD14 (BioLegend, clone M5E2) and CD16 (BD Biosciences, clone 3G8) (lymphocytes, CD45^+CD11b^−CD16^−; classical monocytes, CD45^+CD11b^+CD14^++CD16^−; non-classical monocytes, CD45^+CD11b^+CD14^+CD16^++; neutrophils, CD45^+CD11b^+CD16^+). Murine immune cells were discriminated by staining for CD45 (BD Biosciences, clone 30-F11), CD11b (BioLegend, clone M1/70), Ly6G (BD Biosciences, clone 1A8), Ly6C (BioLegend, clone HK1.4) and F4/80 (BioLegend, clone BM8) (lymphocytes, CD45^+CD11b^−Ly6G^−; classical monocytes, CD45^+CD11b^+Ly6G^−Ly6C^hi; non-classical monocytes, CD45^+CD11b^+Ly6G^−Ly6C^lo; neutrophils, CD45^+CD11b^+Ly6G^+; eosinophils, CD45^+CD11b^+Ly6G^+SSC^hiFSC^lo). Both human and murine cells were stained for 20 min at 4 °C, followed by washing with 200 µl MACS buffer.\nIf not mentioned otherwise, neutrophil-specific peptide or Con (both at 1 µg ml^−1) were incubated for 20 min at 4 °C, while ^NPPFCs or ^ConPFCs were incubated at a concentration of 10 µl ml^−1 for the indicated period of time, followed by two washing steps with 200 µl MACS buffer.\nA total of 1 × 10^6 cells were incubated with 10 µl of the emulsion over a period of 80 min at 37 °C. At distinct time points, 50 µl of the samples were transferred into 2 ml of ice-cold MACS buffer and analyzed for rhodamine fluorescence by flow cytometry.\nExtended Data Fig. 2 Specific targeting of neutrophils by ^mNPPFCs. a, Flow cytometric analysis of murine blood leukocytes incubated with ^mNPPFCs over 80 min illustrating their predominant uptake by neutrophils (red) as compared to monocytes (blue) and lymphocytes (gray). b, To further validate specificity, binding of CD177 mAb as well as incorporation of ^mNPPFCs under basal and LPS-stimulated conditions were determined. Almost no binding/uptake into classical or non-classical monocytes as well as macrophages or eosinophils could be detected. […] Subsequently, cells were analyzed by ^1H/^19F MRI. Left: ^1H/^19F MRI of centrifugation tubes with neutrophils treated with ^mNPPFCs (lower panel) or ^ConPFCs (upper panel). The small neutrophil cell pellet is located at the bottom of the tube and can be identified by ^1H MRI (1st column) as slightly darker structure (arrows) compared to the bright phosphate buffer; corresponding ^19F MR images (2nd column) and superimposition of ^1H/^19F datasets (3rd column, with ^19F data color-coded in hot iron). Quantification of ^19F signals (4th column) clearly indicate substantial stronger ^19F uptake in ^mNPPFC-treated neutrophils (red) compared to cells incubated with ^ConPFCs (gray); a.u. = arbitrary units. Data are means ± SD of n = 4 (a), n = 6 (b), n = 6 (c) or n = 3-5 (d) independent experiments; * = […], ** = p < 0.01, *** = p < 0.001, verified by two-way ANOVA (a), one-way ANOVA (b) or two-sided students t-test (c, d). Source data", "key": {"[1]": {"settings": "ex vivo, murine blood, flow cytometry, panel A raw data, replicates #1-#3"}}, "note": "Where “and” joins values, the source holds several entries; their conditions need not be identical. Equal values may be shown once. Where no end group is shown, it is not given here. Side-chain parts run from the residue outwards. rhodamine‑labelled PEGylated perfluoro‑15‑crown‑5 ether nanoemulsion = not defined here; carboxyfluorescein = N-terminal fluorescence label (CF)"}
{"substance": "mNPPFCs: PEGylated rhodamine-labeled perfluoro-15-crown-5 ether nanoemulsion (maleimide PFCs) coupled with murine neutrophil-specific peptide mNP (carboxyfluorescein-DFYKPMPNLRITGGGC([maleimide‑PEG2000‑DSPE-rhodamine‑labelled PEGylated perfluoro‑15‑crown‑5 ether nanoemulsion]); reading uncertain; also: printed as DFYKPMPNLRIT-GGG-C)", "values": [{"measurement": "Stimulated mNPPFC Uptake, flow cytometry", "setting": "classical monocytes", "result": "968 and 1199 and 1888 and 792 and 1168 and 1582"}, {"measurement": "Basal mNPPFC Uptake, flow cytometry", "setting": "classical monocytes", "result": "1007 and 804 and 1494 and 1027 and 800 and 1292"}, {"measurement": "Stimulated mNPPFC Uptake, flow cytometry", "setting": "eosinophils", "result": "391 and 367 and 596 and 415 and 376 and 503"}, {"measurement": "Basal mNPPFC Uptake, flow cytometry", "setting": "eosinophils", "result": "880 and 341 and 789 and 755 and 384 and 656"}, {"measurement": "uptake of PFCs, lymphocytes", "setting": "[1]", "result": "97.9 and 103 and 102"}, {"measurement": "uptake of PFCs, monocytes", "setting": "[1]", "result": "212 and 348 and 265"}, {"measurement": "uptake of PFCs, neutrophils", "setting": "[1]", "result": "2972 and 1641 and 1658"}, {"measurement": "Stimulated mNPPFC Uptake, flow cytometry", "setting": "macrophages", "result": "1176 and 1188 and 969 and 1223 and 1090 and 1085"}, {"measurement": "Basal mNPPFC Uptake, flow cytometry", "setting": "macrophages", "result": "945 and 874 and 865 and 808 and 877 and 873"}, {"measurement": "Stimulated mNPPFC Uptake, flow cytometry", "setting": "neutrophils", "result": "17100 and 16383 and 15263 and 14366 and 16180 and 12939"}, {"measurement": "Basal mNPPFC Uptake, flow cytometry", "setting": "neutrophils", "result": "10186 and 7521 and 8652 and 6287 and 6135 and 7209"}, {"measurement": "Stimulated mNPPFC Uptake, flow cytometry", "setting": "non classical monocytes", "result": "277 and 303 and 242 and 252 and 281 and 240"}, {"measurement": "Basal mNPPFC Uptake, flow cytometry", "setting": "non classical monocytes", "result": "138 and 192 and 152 and 172 and 167"}]}
